Assay results published in patent US11814391B2, “Macrocyclic compounds for the treatment of medical disorders” (Achillion Pharmaceuticals, Inc., priority 2018, dated 2023).
Where two headings read alike, the source gives them in different places.

Assays:
[1] = rcm bond, Grubbs II, toluene, 80.0 °C
Human Factor D = Human Factor D (Homo sapiens (Human), UniProt P00746); assay: Human Factor D assay; format: biochemical; conditions: Human Factor D 80 nM, substrate Z-L-Lys-SBzl, A405; read-out: IC50 (Stars)
Chain of Human Factor D (P00746 26-253): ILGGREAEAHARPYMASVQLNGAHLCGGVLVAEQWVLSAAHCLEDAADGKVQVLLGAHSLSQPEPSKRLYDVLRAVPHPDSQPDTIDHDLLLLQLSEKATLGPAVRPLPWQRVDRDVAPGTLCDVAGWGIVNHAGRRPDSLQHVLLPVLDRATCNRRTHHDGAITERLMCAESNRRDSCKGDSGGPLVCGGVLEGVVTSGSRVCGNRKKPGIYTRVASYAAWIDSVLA
Description: The assay of Example 3 was used to determine the IC50's of the compounds. Other standard factor D inhibition assays are also available.
Human Factor D (purified from human serum, Complement Technology, Inc.) at 80 nM final concentration is incubated with test compound at various concentrations for 5 min at room temperature in 50 mM Tris, 1M NaCl, pH 7.5. A synthetic substrate Z-L-Lys-SBzI and DTNB (Ellman's reagent) are added to final concentrations of 100 μM each. Absorbance at 405 nm (A405) is recorded at 30 second intervals for 30 min using a microplate spectrophotometer. IC50 values are calculated by nonlinear regression of complement Factor D reaction rates as a function of test compound concentration.

**Q.** With `CC(=O)c1nn2c3c(cc(-c4cnc(C)nc4)cc13)CCCCCCC=CCc1ccc(Br)nc1NC(=O)[C@H](C)N(C)C(=O)C2` as the molecule, how does the ring closure, isolated yield ([1]; from C=CCCCCCCc1cc(-c2cnc(C)nc2)cc2c(C(C)=O)nn(CC(=O)N(C)[C@@H](C)C(=O)Nc3nc(Br)ccc3CC=C)c12, 20-membered ring, 1.4 mM, 16.0 h) read?
**A.** Its ring closure, isolated yield is 63.8%.

**Q.** Which ring closure, isolated yield ([1]; from C=CCCC(=O)Nc1cc(-c2cnc(C)nc2)cc2c(C(C)=O)nn(CC(=O)N3C(C(=O)Nc4nc(C(F)(F)F)ccc4C)CC4(COCC=C)CC34)c12, 17-membered ring, 1.35 mM) does the source give for `CC(=O)c1nn2c3c(cc(-c4cnc(C)nc4)cc13)NC(=O)CCC=CCOCC13CC(C(=O)Nc4nc(C(F)(F)F)ccc4C)N(C(=O)C2)C1C3` (stereo not shown) here?
**A.** The ring closure, isolated yield was 65.8%.

**Q.** With `CC(=O)c1nn2c3c(cc(NC(=O)OC(C)(C)C)cc13)CC=CCCCC(=O)NC[C@@]13C[C@@H](C(=O)Nc4nc(C(F)(F)F)ccc4C)N(C(=O)C2)[C@@H]1C3` as the molecule, how does the ring closure, isolated yield ([1]; from C=CCCCC(=O)NC[C@@]12C[C@@H](C(=O)Nc3nc(C(F)(F)F)ccc3C)N(C(=O)Cn3nc(C(C)=O)c4cc(NC(=O)OC(C)(C)C)cc(CC=C)c43)[C@@H]1C2, 17-membered ring, 1.3 mM, 16.0 h) read?
**A.** Its ring closure, isolated yield is 78.9%.

**Q.** With `CC(=O)c1nn2c3c(cc(-c4cnc(C)nc4)cc13)CCCCCC(C)(C)CNC[C@@]13C[C@@H](C(=O)Nc4nc(C(F)(F)F)ccc4C)N(C(=O)C2)[C@@H]1C3` [Compound 59, (41R,43S,45R)-13-acetyl-8,8-dimethyl-N-(3-methyl-6-(trifluoromethyl)pyridin-2-yl)-15-(2-methylpyrimidin-5-yl)-3-oxo-11H-42,6-diaza-1(1,7)-indazola-4(2,5)-bicyclo[3.1.0]hexanacyclotridecaphane-43-carboxamide] as the molecule, how does the IC50 (Human Factor D) read?
**A.** Its IC50 is less than 1 µM.

**Q.** With `CNc1cc2c3c(c1)c(C(C)=O)nn3CC(=O)N1[C@H](C(=O)Nc3nc(C(F)(F)F)ccc3C)C[C@@]3(CNC(=O)CCCCCC2)C[C@@H]13` [Compound 27, (4^1R,4^3S,4^5R)-1^3-acetyl-N-(3-methyl-6-(trifluoromethyl)pyridin-2-yl)-1^5-(methylamino)-3,7-dioxo-1^1H-4^2,6-diaza-1(1,7)-indazola-4(2,5)-bicyclo[3.1.0]hexanacyclotridecaphane-4^3-carboxamide] as the molecule, how does the IC50 (Human Factor D) read?
**A.** Its IC50 is less than 1 µM.

**Q.** With `CC(=O)c1nn2c3c(cc(NC(=O)C4CC4)cc13)CCCCCCC(=O)NCC13CC(C(=O)Nc4nc(C(F)(F)F)ccc4C)N(C(=O)C2)C1C3` [Compound 57, (41R,43S,45R)-13-acetyl-15-(cyclopropanecarboxamido)-N-(3-methyl-6-(trifluoromethyl)pyridin-2-yl)-3,7-dioxo-11H-42,6-diaza-1(1,7)-indazola-4(2,5)-bicyclo[3.1.0]hexanacyclotridecaphane-43-carboxamide] as the molecule, how does the IC50 (Human Factor D) read?
**A.** The IC50 was less than 1 µM.

**Q.** With `CC(=O)c1nn2c3c(cc(N4CCCC4)cc13)CCCCCCC(=O)NC[C@@]13C[C@@H](C(=O)Nc4nc(C(F)(F)F)ccc4C)N(C(=O)C2)[C@@H]1C3` [Compound 3, (4^1R,4^3S,4^5R)-1^3-acetyl-N-(3-methyl-6-(trifluoromethyl)pyridin-2-yl)-3,7-dioxo-1^5-(pyrrolidin-l-yl)-1^1H-4^2,6-diaza-1(1,7)-indazola-4(2,5)-bicyclo[3.1.0]hexanacyclotridecaphane-4^3-carboxamide] as the molecule, how does the IC50 (Human Factor D) read?
**A.** Its IC50 is less than 1 µM.

**Q.** Which IC50 (Human Factor D) does the source give for `CC(=O)c1nn2c3c(cc(-c4cnc(C)nc4)cc13)NC(=O)CCCCCOCC13CC(C(=O)Nc4nc(C(F)(F)F)ccc4C)N(C(=O)C2)C1C3` [Compound 60, (41R,43S,45S)-13-acetyl-N-(3-methyl-6-(trifluoromethyl)pyridin-2-yl)-15-(2-methylpyrimidin-5-yl)-3,12-dioxo-11H-6-oxa-42,13-diaza-1(1,7)-indazola-4(2,5)-bicyclo[3.1.0]hexanacyclotridecaphane-43-carboxamide] here?
**A.** Its IC50 is less than 1 µM.

**Q.** Which IC50 (Human Factor D) does the source give for `CC(=O)c1nn2c3c(cc(NC4CCCC4)cc13)CCCCCCC(=O)NCC13CC(C(=O)Nc4nc(C(F)(F)F)ccc4C)N(C(=O)C2)C1C3` [Compound 55, (41R,43S,45R)-13-acetyl-15-(cyclopentylamino)-N-(3-methyl-6-(trifluoromethyl)pyridin-2-yl)-3,7-dioxo-11H-42,6-diaza-1(1,7)-indazola-4(2,5)-bicyclo[3.1.0]hexanacyclotridecaphane-43-carboxamide] here?
**A.** The IC50 was less than 1 µM.

**Q.** With `CC(=O)c1nn2c3c(cc(NCC4CCCCC4)cc13)CCCCCCC(=O)NC[C@@]13C[C@@H](C(=O)Nc4nc(C(F)(F)F)ccc4C)N(C(=O)C2)[C@@H]1C3` [Compound 39, (4^1R,4^3S,4^5R)-1^3-acetyl-1^5-((cyclohexylmethyl)amino)-N-(3-methyl-6-(trifluoromethyl)pyridin-2-yl)-3,7-dioxo-1^1H-4^2,6-diaza-1(1,7)-indazola-4(2,5)-bicyclo[3.1.0]hexanacyclotridecaphane-4^3-carboxamide] as the molecule, how does the IC50 (Human Factor D) read?
**A.** Its IC50 is less than 1 µM.

**Q.** With `CC(=O)c1nn2c3c(cc(-c4cnc5cc(C)nn5c4)cc13)CCCCC[C@@H](C)C(=O)NC[C@@]13C[C@@H](C(=O)Nc4nc(C(F)(F)F)ccc4C)N(C(=O)C2)[C@@H]1C3` [Compound 22, (4^1R,4^3S,4^5R,8R)-1^3-acetyl-8-methyl-N-(3-methyl-6-(trifluoromethyl)pyridin-2-yl)-15-(2-methylpyrazolo[1,5-a]pyrimidin-6-yl)-3,7-dioxo-1^1H-4^2,6-diaza-1(1,7)-indazola-4(2,5)-bicyclo[3.1.0]hexanacyclotridecaphane-4^3-carboxamide] as the molecule, how does the IC50 (Human Factor D) read?
**A.** Its IC50 is less than 1 µM.

**Q.** Which IC50 (Human Factor D) does the source give for `CC(=O)c1nn2c3c(cc(-c4cnc(C)nc4)cc13)CCCCCCCCCc1ccc(Br)nc1NC(=O)[C@H](C)N(C)C(=O)C2` [Compound 38, (S)-13-acetyl-3-bromo-7,8-dimethyl-15-(2-methylpyrimidin-5-yl)-5,7,8,17,18,19,20,21,22,23,24,25-dodecahydro-6H-pyrido[2′,3′:8,9][1,4,7]triazacycloicosino[19,20,1-hi]indazole-6,9(10H)-dione] here?
**A.** Its IC50 is greater than 10 µM.

**Q.** With `CC(=O)c1nn2c3c(cc(-c4cnc(C)nc4)cc13)CCCCCCCNC[C@@]13C[C@@H](C(=O)Nc4nc(C(F)(F)F)ccc4C)N(C(=O)C2)[C@@H]1C3` [Compound 32, (4^1R,4^3S,4^5R)-1^3-acetyl-N-(3-methyl-6-(trifluoromethyl)pyridin-2-yl)-1^5-(2-methylpyrimidin-5-yl)-3-oxo-1^1H-4^2,6-diaza-1(1,7)-indazola-4(2,5)-bicyclo[3.1.0]hexanacyclotridecaphane-4^3-carboxamide] as the molecule, how does the IC50 (Human Factor D) read?
**A.** Its IC50 is less than 1 µM.

**Q.** With `CC(=O)c1nn2c3c(cc(NC(C)C)cc13)CCCCCCC(=O)NC[C@@]13C[C@@H](C(=O)Nc4nc(C(F)(F)F)ccc4C)N(C(=O)C2)[C@@H]1C3` [Compound 25, (4^1R,4^3S,4^5R)-1^3-acetyl-1^5-(isopropylamino)-N-(3-methyl-6-(trifluoromethyl)pyridin-2-yl)-3,7-dioxo-1^1H-4^2,6-diaza-1(1,7)-indazola-4(2,5)-bicyclo[3.1.0]hexanacyclotridecaphane-4^3-carboxamide] as the molecule, how does the IC50 (Human Factor D) read?
**A.** The IC50 was less than 1 µM.

**Q.** With `CC(=O)c1nn2c3c(cc(-c4cnc(C)nc4)cc13)CCCC[C@@H](C)CC(=O)NC[C@@]13C[C@@H](C(=O)Nc4nc(C(F)(F)F)ccc4C)N(C(=O)C2)[C@@H]1C3` [Compound 34, (4^1R,4^3S,4^5R,9R)-1^3-acetyl-9-methyl-N-(3-methyl-6-(trifluoromethyl)pyridin-2-yl)-1^5-(2-methylpyrimidin-5-yl)-3,7-dioxo-1^1H-4^2,6-diaza-1(1,7)-indazola-4(2,5)-bicyclo[3.1.0]hexanacyclotridecaphane-4^3-carboxamide] as the molecule, how does the IC50 (Human Factor D) read?
**A.** Its IC50 is less than 1 µM.

**Q.** Which IC50 (Human Factor D) does the source give for `CC(=O)c1nn2c3c(cc(-c4cnc(C)nc4)cc13)CCCC[C@H](C)CC(=O)NC[C@@]13C[C@@H](C(=O)Nc4nc(C(F)(F)F)ccc4C)N(C(=O)C2)[C@@H]1C3` [Compound 31, (4^1R,4^3S,4^5R,9S)-1^3-acetyl-9-methyl-N-(3-methyl-6-(trifluoromethyl)pyridin-2-yl)-1^5-(2-methylpyrimidin-5-yl)-3,7-dioxo-1^1H-4^2,6-diaza-1(1,7)-indazola-4(2,5)-bicyclo[3.1.0]hexanacyclotridecaphane-4^3-carboxamide] here?
**A.** The IC50 was less than 1 µM.

**Q.** With `CC(=O)c1nn2c3c(cc(C4CC4)cc13)CCCCCCC(=O)NC[C@@]13C[C@@H](C(=O)Nc4nc(C(F)(F)F)ccc4C)N(C(=O)C2)[C@@H]1C3` [Compound 4, (4^1R,4^3S,4^5R)-1^3-acetyl-1^5-cyclopropyl-N-(3-methyl-6-(trifluoromethyl)pyridin-2-yl)-3,7-dioxo-1^1H-4^2,6-diaza-1(1,7)-indazola-4(2,5)-bicyclo[3.1.0]hexanacyclotridecaphane-4^3-carboxamide] as the molecule, how does the IC50 (Human Factor D) read?
**A.** Its IC50 is less than 1 µM.

**Q.** Which IC50 (Human Factor D) does the source give for `CC(=O)c1nn2c3c(cc(-c4cnc(C)nc4)cc13)CCCCC(C)(C)CC(=O)NC[C@@]13C[C@@H](C(=O)Nc4nc(C(F)(F)F)ccc4C)N(C(=O)C2)[C@@H]1C3` [Compound 26, (4^1R,4^3S,4^5R)-1^3-acetyl-9,9-dimethyl-N-(3-methyl-6-(trifluoromethyl)pyridin-2-yl)-15-(2-methylpyrimidin-5-yl)-3,7-dioxo-1^1H-4^2,6-diaza-1(1,7)-indazola-4(2,5)-bicyclo[3.1.0]hexanacyclotridecaphane-4^3-carboxamide] here?
**A.** The IC50 was less than 1 µM.

**Q.** With `CC(=O)c1nn2c3c(cc(-c4cnc(C)cn4)cc13)CCCCC[C@@H](C)C(=O)NC[C@@]13C[C@@H](C(=O)Nc4nc(C(F)(F)F)ccc4C)N(C(=O)C2)[C@@H]1C3` [Compound 23, (4^1R,4^3S,4^5R,8R)-1^3-acetyl-8-methyl-N-(3-methyl-6-(trifluoromethyl)pyridin-2-yl)-15-(5-methylpyrazin-2-yl)-3,7-dioxo-1^1H-4^2,6-diaza-1(1,7)-indazola-4(2,5)-bicyclo[3.1.0]hexanacyclotridecaphane-4^3-carboxamide] as the molecule, how does the IC50 (Human Factor D) read?
**A.** Its IC50 is less than 1 µM.
